The values below are quoted from earlier work in patent publication EP2654723B1, “Solid pharmaceutical dosage forms comprising tadalafil and methods of preparation thereof” (Zaklady Farmaceutyczne Polpharma SA, priority 2010, dated 2012).

The conditions of data set [1]: at 37°C.

Structures are written as SMILES.

As to `CN1CC(=O)N2[C@H](c3ccc4c(c3)OCO4)c3[nH]c4ccccc4c3C[C@@H]2C1=O` [Tadalafil, (6R-trans)-6-(1,3-benzodioxol-5-yl)-2,3,6,7,12,12a-hexahydro-2-methyl-pyrazino [1', 2':1,6] pyrido[3,4-b]indole-1,4-dione], the permeability entry is given as “low permeability”. For the same molecule, the experimental water solubility entry in data set [1] was “about 2 µg/mL”. The BCS class result (because of low solubility and low permeability) is recorded as “BCS class IV”.
